Tested on: Aspc-1 cells
Assay: Viability of pancreatic cancerous 3D organoids in liquid pearls (Calcein-AM / propidium iodide, Celigo image cytometry)
Type: cell-based, human
Conditions: AsPC-1 organoids in liquid pearls; Gemcitabine 80 μM
Protocol: FIG. 4. Effects of an ethanolic plant extract on 3D cultured cells viability. Pancreatic cancer cells seeded at 10^5 cells/mL were injected and grown in liquid pearls at a volume of 150 μL for 24 hours, then exposed to ethanolic extract #138-10D (80 μg/ml), vehicle or Gemcitabine (80 μM). After 24 hours of incubation, the cells were labeled (Calcein-AM=green-living cells and propidium iodide=red-dead cells). The composite image of the two channels was analyzed by imaging cytometry.
In a first step, medium filling the pearls is prepared using DMEMhigh glucose complete medium supplemented by 1.2% of methylcellulose solution (MC) at a ratio of 4 to 1. For spheroid generation, 150 μL of pearls medium were dispensed onto fumed silica-coated 6-well plates, then Aspc-1 cells, at a density of 10,000 cells/mL, were directly injected into each pearl. The injected pearls were then incubated in a humidified incubator at 37 C° and 5% CO2.
After 24 hours, 50 μL of complete medium containing the different extracts (final concentration 80 μg/mL) were injected into each pearl and incubated for an additional 48 hours. […] Pearls containing cancerous organoids were finally analyzed on Celigo image cytometer (Cyntellect Inc, San Diego, CA, USA).

SMILES: Nc1ccn([C@@H]2O[C@H](CO)[C@@H](O)C2(F)F)c(=O)n1 [Gemcitabine]
- activity on AsPC-1 cells (3D cultured cells viability): only active on AsPC-1 cells at a concentration of 80 μM
